Experimental data from US20210379099A1 (priority 2020, published 2021).
Entries after “also recorded” stand apart in the source; their conditions may differ.

Columns and labels:
[1] = format: binding; conditions: read-out: Kd (Me4CB[8]•guest)
[2] = test system: PCP-induced hyperlocomotion; experiment: In vivo reversal of PCP-induced hyperlocomotion (open field, locomotion counts); set-up: species or system mice; conditions: listed as PCP

Structure (SMILES)	Kd [1] [nM]	locomotion counts, PCP alone ([2]; experiment 1, male Swiss Webster mice n=8, PCP 2 mg/kg, 0.2 mL infusion, vs saline, Me4CB[8] alone, premix)	locomotion counts, PCP alone ([2]; experiment 2, male Swiss Webster mice n=9, PCP 1.95 mg/kg, vs saline and sequential infusions)
CNC1(c2ccccc2Cl)CCCCC1=O (stereo not shown) [Ketamine 7, Ketamine]	36	–	–
c1ccc(C2(N3CCCCC3)CCCCC2)cc1 [PCP 8, Phencyclidine]	2	increased locomotion significantly; also recorded: significant increase in locomotion counts	significantly increased locomotion counts; also recorded: significant increase in locomotion counts
